Laboratory results taken from patent publication US8012998B2, “Pyrrolidine aryl-ether as NK-3 receptor antagonists” (Hoffmann—LA Roche Inc., priority 2007, dated 2011).

The compounds below were run against T1, human NK3 receptor (Homo sapiens, UniProt P29371) (assay: [3H]SR142801 competition binding assay (hNK3 receptor binding)). Details: [3H]SR142801 radioligand; membranes from HEK293 cells transiently expressing recombinant human NK3 receptor; Ki by Cheng-Prussoff; read-out: KiNK3 h.
T1 construct: expressed in transfected cells; host or cells: HEK293 cells (transient expression), membrane preparation
T1 sequence (P29371 1-465): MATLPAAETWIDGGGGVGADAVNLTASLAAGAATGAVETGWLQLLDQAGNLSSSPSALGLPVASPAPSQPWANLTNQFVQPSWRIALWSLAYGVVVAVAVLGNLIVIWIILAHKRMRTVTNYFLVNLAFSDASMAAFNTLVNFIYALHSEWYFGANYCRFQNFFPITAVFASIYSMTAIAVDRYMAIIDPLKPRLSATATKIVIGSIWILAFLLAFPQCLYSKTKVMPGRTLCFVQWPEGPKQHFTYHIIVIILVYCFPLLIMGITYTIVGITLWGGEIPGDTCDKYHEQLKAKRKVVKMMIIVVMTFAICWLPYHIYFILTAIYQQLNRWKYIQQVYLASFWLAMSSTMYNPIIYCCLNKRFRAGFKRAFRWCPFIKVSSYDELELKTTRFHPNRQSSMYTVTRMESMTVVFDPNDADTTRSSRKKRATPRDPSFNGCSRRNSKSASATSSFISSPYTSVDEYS
In short: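 Competition binding with [3H]SR142801 on membranes of HEK293 cells transiently expressing human NK3, 5 μg protein/well, in Tris-HCl/MnCl2/phosphoramidon/BSA buffer pH 7.4. Nonspecific binding defined with 10 μM SB222200; filtration then scintillation counting. IC50 from Hill fit was converted to Ki by Cheng-Prusoff; duplicate, mean ± SEM.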
Work on `Cc1ncc(C(=O)N2C[C@H]([C@H](CO)Oc3ccc(Cl)cn3)[C@@H](c3ccc(Cl)c(Cl)c3)C2)cn1` (racemic) [Example 87, [(3RS,4SR)-3-[(RS)-1-(5-Chloro-pyridin-2-yloxy)-2-hydroxy-ethyl]-4-(3,4-dichloro-phenyl)-pyrrolidin-1-yl]-(2-methyl-pyrimidin-5-yl)-methanone] yielded a Ki of 56.2 nM.
With `Cc1cc(C(=O)N2C[C@H]([C@H](C)Oc3ccc(C#N)cn3)[C@@H](c3ccc(Cl)c(Cl)c3)C2)cnn1` (racemic) [Example 89, 6-{(SR)-1-[(3RS,4SR)-4-(3,4-Dichloro-phenyl)-1-(6-methyl-pyridazine-4-carbonyl)-pyrrolidin-3-yl]-ethoxy}-nicotinonitrile] the Ki was 9.1 nM.
For `Cc1ccnc(C(=O)N2C[C@H]([C@H](C)Oc3ccc(C#N)cn3)[C@@H](c3ccc(Cl)c(Cl)c3)C2)c1` (racemic) [Example 92, 6-{(SR)-1-[(3RS,4SR)-4-(3,4-Dichloro-phenyl)-1-(4-methyl-pyridine-2-carbonyl)-pyrrolidin-3-yl]-ethoxy}-nicotinonitrile], the Ki was 33.8 nM.
With `Cc1cccc(C(=O)N2C[C@H]([C@H](C)Oc3ccc(C#N)cn3)[C@@H](c3ccc(Cl)c(Cl)c3)C2)n1` (racemic) [Example 93, 6-{(SR)-1-[(3RS,4SR)-4-(3,4-Dichloro-phenyl)-1-(6-methyl-pyridine-2-carbonyl)-pyrrolidin-3-yl]-ethoxy}-nicotinonitrile] the Ki was 64.6 nM.
`Cc1nccc(C(=O)N2C[C@H]([C@H](C)Oc3ccc(C#N)cn3)[C@@H](c3ccc(Cl)c(Cl)c3)C2)n1` (racemic) [Example 95, 6-{(SR)l-1[-(3RS,4SR)-4-(3,4-Dichloro-phenyl)-1-(2-methyl-pyrimidine-4-carbonyl)-pyrrolidin-3-yl]-ethoxy}-nicotinonitrile] gave a Ki of 52.4 nM.
Compound `Cc1cnc(C(=O)N2C[C@H]([C@H](C)Oc3ccc(C#N)cn3)[C@@H](c3ccc(Cl)c(Cl)c3)C2)cn1` (racemic) [Example 97, 6-{(SR)-1-[(3RS,4SR)-4-(3,4-Dichloro-phenyl)-1-(5-methyl-pyrazine-2-carbonyl)-pyrrolidin-3-yl]-ethoxy}-nicotinonitrile] has a Ki of 67.5 nM.
For `C[C@H](Oc1ccc(C#N)cn1)[C@H]1CN(C(=O)c2cnc(C(C)(C)C)nc2)C[C@@H]1c1ccc(Cl)c(Cl)c1` (racemic) [Example 98, 6-{(SR)-1-[(3RS,4SR)-1-(2-tert-Butyl-pyrimidine-5-carbonyl)-4-(3,4-dichloro-phenyl)-pyrrolidin-3-yl]-ethoxy}-nicotinonitrile], the Ki was 45.7 nM.
In the case of `C#Cc1ccc(O[C@@H](C)[C@H]2CN(C(=O)c3cnnc(C)c3)C[C@@H]2c2ccc(Cl)c(Cl)c2)nc1` (racemic) [Example 110, {(3SR,4RS)-3-(3,4-Dichloro-phenyl)-4-[(SR)-1-(5-ethynyl-pyridin-2-yloxy)-ethyl]-pyrrolidin-1-yl}-(6-methyl-pyridazin-4-yl)-methanone], the Ki is reported as 17.7 nM.
Compound `Cc1cc(C(=O)N2C[C@H]([C@H](C)Oc3ccc(Cl)cn3)[C@@H](c3ccc(F)cc3F)C2)cnn1` (racemic) [Example 117, [(3RS,4SR)-3-[(SR)-1-(5-Chloro-pyridin-2-yloxy)-ethyl]-4-(2,4-difluoro-phenyl)-pyrrolidin-1-yl]-(6-methyl-pyridazin-4-yl)-methanone] has a Ki of 27 nM.
`Cc1ncc(C(=O)N2CC(c3ccc(Cl)c(Cl)c3)[C@@H]([C@H](C)Oc3ccc(Cl)cn3)C2)cn1` (single isomer, unassigned) [Example 40] showed a Ki of 6.8 nM.
In the case of `C[C@H](Oc1ccc(Cl)cn1)[C@H]1CN(C(=O)c2ccc(C#N)nc2)C[C@@H]1c1ccc(Cl)c(Cl)c1` (single isomer, unassigned) [Example 54], the Ki is reported as 2 nM.
In the case of `Cc1ncc(C(=O)N2CC(C(C)Oc3ccc(Cl)cn3)[C@H](c3ccc(Cl)c(Cl)c3)C2)cn1` (stereo in doubt) [Example 41, [(3S,4R)-3-[(R)-1-(5-Chloro-pyridin-2-yloxy)-ethyl]-4-(3,4-dichloro-phenyl)-pyrrolidin-1-yl]-(2-methyl-pyrimidin-5-yl)-methanone], the Ki is reported as 66.4 nM.
For `C[C@@H](Oc1ccc(Cl)cn1)[C@@H]1CN(C(=O)c2ccc(CCN(C)C)cc2)C[C@H]1c1ccc(Cl)c(Cl)c1` [Example 44, [(3S,4R)-3-[(R)-1-(5-Chloro-pyridin-2-yloxy)-ethyl]-4-(3,4-dichloro-phenyl)-pyrrolidin-1-yl]-[4-(2-dimethylamino-ethyl)-phenyl]-methanone], the Ki was 11.8 nM.
Work on `C[C@@H](Oc1ccc(Cl)cn1)[C@@H]1CN(C(=O)c2cnc(C#N)nc2)C[C@H]1c1ccc(Cl)c(Cl)c1` [Example 50, 5-[(3S,4R)-3-[(R)-1-(5-Chloro-pyridin-2-yloxy)-ethyl]-4-(3,4-dichloro-phenyl)-pyrrolidine-1-carbonyl]-pyrimidine-2-carbonitrile] yielded a Ki of 4.6 nM.
`C[C@H](Oc1ccc(C#N)cn1)[C@H]1CN(C(=O)c2cnc(C3CC3)nc2)C[C@@H]1c1ccc(Cl)c(Cl)c1` [Example 84, 6-{(S)-1[-(3R,4S)-1-(2-Cyclopropyl-pyrimidine-5-carbonyl)-4-(3,4-dichloro-phenyl)-pyrrolidin-3-yl]-ethoxy}-nicotinonitrile] gave a Ki of 22 nM.
With `Cc1ncc(C(=O)N2C[C@H]([C@H](C)Oc3ccc(Cl)cn3)[C@@H](c3ccc(Cl)c(F)c3)C2)cn1` [Example 90, {(3S,4R)-3-(4-Chloro-3-fluoro-phenyl)-4-[(S)-1-(5-chloro-pyridin-2-yloxy)-ethyl]-pyrrolidin-1-yl}-(2-methyl-pyrimidin-5-yl)-methanone] the Ki was 11 nM.
`Cc1ncc(C(=O)N2C[C@H]([C@H](C)Oc3ccc(C#N)cn3)[C@@H](c3ccc(Cl)c(F)c3)C2)cn1` [Example 91, 6-{(S)-1-[(3R,4S)-4-(4-Chloro-3-fluoro-phenyl)-1-(2-methyl-pyrimidine-5-carbonyl)-pyrrolidin-3-yl]-ethoxy}-nicotinonitrile] gave a Ki of 18.4 nM.
For `Cc1ncc(C(=O)N2C[C@H]([C@H](C)Oc3ccc(Cl)cn3)[C@@H](c3ccc(F)c(Cl)c3)C2)cn1` [Example 101, {(3S,4R)-3-(3-Chloro-4-fluoro-phenyl)-4-[(S)-1-(5-chloro-pyridin-2-yloxy)-ethyl]-pyrrolidin-1-yl}-(2-methyl-pyrimidin-5-yl)-methanone], the Ki was 46 nM.
Compound `Cc1ncc(C(=O)N2C[C@H]([C@H](C)Oc3ccc(C#N)cn3)[C@@H](c3ccc(F)c(Cl)c3)C2)cn1` [Example 102, 6-{(S)-1-[(3R,4S)-4-(3-Chloro-4-fluoro-phenyl)-1-(2-methyl-pyrimidine-5-carbonyl)-pyrrolidin-3-yl]-ethoxy}-nicotinonitrile] has a Ki of 91.4 nM.
Compound `Cc1ncc(C(=O)N2C[C@H]([C@H](C)Oc3ccc(Cl)cn3)[C@@H](c3ccc(F)c(F)c3)C2)cn1` [Example 103, [(3R,4S)-3-[(S)-1-(5-Chloro-pyridin-2-yloxy)-ethyl]-4-(3,4-difluoro-phenyl)-pyrrolidin-1-yl]-(2-methyl-pyrimidin-5-yl)-methanone] has a Ki of 25.7 nM.
For `Cc1cc(C(=O)N2C[C@H]([C@H](C)Oc3ccc(Cl)cn3)[C@@H](c3ccc(F)c(F)c3)C2)cnn1` [Example 104, [(3R,4S)-3-[(S)-1-(5-Chloro-pyridin-2-yloxy)-ethyl]-4-(3,4-difluoro-phenyl)-pyrrolidin-1-yl]-(6-methyl-pyridazin-4-yl)-methanone], the Ki was 4 nM.
